Data taken from US8232275B2, “2,2-bis-(hydroxymethyl)cyclopropylidenemethyl-purines and -pyrimidines as antiviral agents” (Wayne State University, priority 2002, dated 2012).
Marks after values point to notes of the source that are not given here.

What was measured:
[1] = system: HSV-1; experiment: HSV-1 ELISA in BSC-1 cells; assay type: cell-based, herpes simplex virus type 1 (HSV-1); settings: Human alphaherpesvirus 1
Method: (§1) Cells and viruses. The routine growth and passage of KB cells was performed in monolayer cultures using minimal essential medium (MEM) with either Hanks salts [MEM(H)] or Earle salts [MEM(E)] supplemented with 10% calf serum. The sodium bicarbonate concentration was varied to meet the buffering capacity required. Cultures of diploid human foreskin fibroblasts (HFF) or MRC-5 cells were grown in medium consisting of MEM(E) with 10% fetal bovine serum. Cells were passaged at 1:2 to 1:10 dilutions according to conventional procedures by using 0.05% trypsin plus 0.02% EDTA in a HEPES buffered salt solution (HBS) (Shipman, C., Jr., Proc. Soc. Exp. Biol. 130:305-310 (1969)) as described previously. Turk, S. R., et al., Antimicrob. Agents Chemother. 31:544-550 (1987). HFF and MRC-5 cells were passaged only at 1:2 dilutions. CEM cells were maintained in suspension culture as detailed previously. Kucera, L. S., et al., AIDS Res. Human Retroviruses 9:307-314 (1993).
(§2) Virological procedures. Stock HCMV was prepared by infecting HFF cells at a multiplicity of infection (m.o.i.) of <0.01 plaque-forming units (p.f.u.) per cell. Cell growth medium was changed every four days until cytopathology was evident in all cells (approximately 21 days). Supernatant fluids were retained as the virus stock. High titer HSV-1 stocks were prepared by infecting KB cells at an m.o.i. of <0.1 as detailed previously. Turk, S. R., et al., Antimicrob. Agents Chemother. 31:544-550 (1987). Virus titers were determined using monolayer cultures of HFF cells for HCMV and monolayer cultures of BSC-1 cells for HSV-1 as described earlier. Prichard, M. N. et al., J. Virol. Methods 28:101-106 (1990). Briefly, HFF or BSC-1 cells were planted as described above in 96-well cluster dishes and incubated overnight at 37° C. in a humidified 3% CO2-97% air atmosphere. The next day cultures were inoculated with HCMV or HSV-1 and serially diluted 1:3 across the remaining eleven columns of the 96-well plate. Cultures were incubated at 37° C. for 2 hr to permit virus adsorption and then virus inoculum was replaced with 0.2 mL of fresh medium. Cultures were incubated for seven days for HCMV, two or three days for HSV-1, medium was removed, and the cell sheets were stained with 0.1% crystal violet in 20% methanol. Plaques were enumerated under 20-fold magnification in wells having the dilution which gave 5 to 20 plaques per well. Virus titers were calculated according to the following formula: Titer (p.f.u./mL)=number of plaques×5×3^n; where n represents the nth dilution of the virus used to infect the well in which plaques were enumerated.
Assays for Antiviral Activity. (b) HSV-1. An enzyme-linked immunosorbent assay (ELISA) was employed to detect HSV-1. 96-well cluster dishes were planted with BSC-1 cells at 10,000 cells per well, in a total volume of 200 μL per well of MEM(E) plus 10% calf serum. After overnight incubation at 37° C., drug and HSV-1 was added at the rate of 100 PFU/well. ELISA plates were blocked with 200 μL per well of 10% calf serum and 0.05% tween in HBS. After incubation for 30 minutes, the blocking agent was rinsed two times with HBS-T. A 1:400 dilution of AP conjugated rabbit anti-HSV-1 antibody in HBS-F was added. Plates were sealed with adhesive sheet, and incubated on rocker for one hour at 37° C. Plates were developed in the dark with […] per well of substrate solution containing p-nitrophenyl phosphate. Plates were read at 492 nm. Drug effects were calculated as a percentage of the reduction in virus in the presence of each drug concentration compared to the titer obtained in the absence of drug. Acyclovir was used as a positive control in all experiments.
(§3) Data Analysis. Dose-response relationships were constructed by linearly regressing the percent inhibition of parameters derived in the preceding sections against log drug concentrations. Fifty-percent inhibitory (IC50) concentrations were calculated from the regression lines. […]

[2] = system: KB cells; experiment: Cytotoxicity in KB cells, growth during two population doublings (crystal violet); assay type: cell-based
Method: (§4) Cytotoxicity assays. Two different assays were used to explore cytotoxicity of selected compounds as we have detailed previously. (i) Cytotoxicity produced in stationary HFF cells was determined by microscopic inspection of cells used in plaque assays which were not affected by the virus. Turk, S. R., et al., Antimicrob. Agents Chemother. 31:544-550 (1987). (ii) The effect of compounds during two population doublings of KB cells was determined by crystal violet staining and spectrophotometric quantitation of dye eluted from stained cells. Prichard, M. N., et al., Antimicrob. Agents Chemother. 35:1060-1065 (1991). Data Analysis. Dose-response relationships were constructed by linearly regressing the percent inhibition of parameters derived in the preceding sections against log drug concentrations. Fifty-percent inhibitory (IC50) concentrations were calculated from the regression lines. Samples containing positive controls (acyclovir for HSV-1, ganciclovir for HCMV, and 2-acetylpyridine thiosemicarbazone for cytotoxicity) were used in all assays. Results from sets of assays were rejected if inhibition by the positive control deviated from its mean response by >±1.5 standard deviations.

[3] = system: HCMV; experiment: HCMV plaque reduction assay in HFF cells; assay type: cell-based, human cytomegalovirus (HCMV); settings: Human betaherpesvirus 5, HFF host cells
Method: as §1, §2
Assays for Antiviral Activity. (a) HCMV. The effect of compounds on the replication of HCMV has been measured using a plaque reduction assay. HFF cells in 24-well cluster dishes were infected with approximately 100 p.f.u. of HCMV per cm^2 cell sheet using the procedures detailed above. Following virus adsorption, compounds dissolved in growth medium were added to duplicate wells in three to six selected concentrations. Following incubation at 37° C. for 7 to 10 days, cell sheets were fixed, stained with crystal violet and microscopic plaques enumerated as described above. Drug effects were calculated as a percentage of reduction in number of plaques in the presence of each drug concentration compared to the number observed in the absence of drug. Ganciclovir (DHPG) was used as a positive control in all experiments.
as §3, with “lines. Samples containing positive controls (acyclovir for HSV-1, ganciclovir for HCMV, and 2-acetylpyridine thiosemicarbazone for cytotoxicity) were used in all assays.” for “lines.”

[4] = Cytotoxicity in stationary HFF cells, microscopic (visual) inspection; assay type: cell-based; settings: human, stationary HFF cells (uninfected cells of the plaque assays), read-out: IC50 (μM) HFF (visual)
Method: as §4

Row | IC50 [1] [µM] | melting point [°C] | SMILES | IC50 (μM) KB (growth) ([2]; cytotoxicity, KB cell growth) | IC50 [3] [µM] | CC50 [4] [µM] | IC50 (μM) KB (growth) ([2]; human) [µM]
1 | 0.15 | – | Nc1nc2c(ncn2COCCO)c(=O)[nH]1 [Acyclovir, reference compound] | >100 ^b μM | – | – | –
2 | – | – | Nc1nc(O)c2ncn(COC(CO)CO)c2n1 [Ganciclovir, reference compound] | – | 4.1 | > 100 | –
3 | > 100 | – | Nc1nc2c(ncn2/C=C2/CC2(CO)CO)c(=O)[nH]1 [Compound 1c, (Z)-9-{[2,2-Bis-(hydroxymethyl)cyclopropylidene]methyl}-guanine] | – | 0.46 | > 100 | >100
4 | > 100 | 188 to 189 | COc1nc(N)nc2c1ncn2/C=C1/CC1(CO)CO [Compound 1g, (Z)-2-amino-6-methoxy-9-{[2,2-bis-(hydroxymethyl)cyclopropylidene]-methyl}purine] | – | 3.5 | > 100 | >100
5 | 10 | – | Cc1cn(/C=C2/CC2(CO)CO)c(=O)[nH]c1=O [Compound 1f, (Z)-1-{[2,2-Bis-(hydroxymethyl)cyclopropylidene]methyl}-thymine] | – | > 100 | > 100 | >100
6 | – | 164 to 165 | Nc1nc(NC2CC2)c2ncn(/C=C3\CC3(CO)CO)c2n1 [Compound 2h, (E)-2-Amino-6-cyclopropylamino-9-{[2,2-bis-(hydroxymethyl)-cyclopropylidene]methyl}purine] | – | – | – | –
7 | > 100 | 250 to 253 | Nc1ccn(/C=C2/CC2(CO)CO)c(=O)n1 [Compound 1e, (Z)-1-{[2,2-Bis-(hydroxymethyl)cyclopropylidene]methyl}-cytosine] | – | 32 | > 100 | >100
8 | 50 | – | Nc1ncnc2c1ncn2/C=C1/CC1(CO)CO [Compound 1a, (Z)-9-{(2,2-Bis-(hydroxymethyl)cyclopropylidene)methyl}-adenine] | – | 3.6 | > 100 | >100
9 | – | 179 to 180 | COc1nc(N)nc2c1ncn2/C=C1\CC1(CO)CO [Compound 2g, (E)-2-amino-6-methoxy-9-{[2,2-bis-(hydroxymethyl)cyclopropylidene]-methyl}purine] | – | – | – | –
10 | – | 249 to 251 | Nc1ccn(/C=C2\CC2(CO)CO)c(=O)n1 [Compound 2e, (E)-1-{[2,2-bis-(hydroxymethyl)cyclopropylidene]methyl}cytosine] | – | – | – | –
11 | 39 | – | Nc1nc2c(ncn2/C=C2\CC2(CO)CO)c(=O)[nH]1 [Compound 2c, (E)-9-{[2,2-Bis-(hydroxymethyl)cyclopropylidene]methyl}-guanine] | – | > 100 | > 100 | >100
12 | – | 195 to 196 | Nc1nc(NC2CC2)c2ncn(/C=C3/CC3(CO)CO)c2n1 [Compound 1h, (Z)-2-Amino-6-cyclopropylamino-9-{[2,2-bis-(hydroxymethyl)-cyclopropylidene]methyl}purine] | – | – | – | –
13 | > 100 | 249 to 250 | Nc1nc(N)c2ncn(/C=C3/CC3(CO)CO)c2n1 [Compound 1o, (Z)-2,6-Diamino-9-{[2,2-bis-(hydroxymethyl)cyclopropylidene]-methyl}-purine] | – | 15 | > 100 | >100
14 | – | 219 to 220 | Nc1nc(N)c2ncn(/C=C3\CC3(CO)CO)c2n1 [Compound 2o, (E)-2,6-Diamino-9-{[2,2-bis-(hydroxymethyl)cyclopropylidene]-methyl}purine] | – | – | – | –
